US10836743B2, “Fluorinated cyclopropylamine compound, preparation method therefor, pharmaceutical composition thereof, and uses thereof” (SHANGHAI INSTITUTE OF MATERIA MEDICA, CHINESE ACADEMY OF …, priority 2016, dated 2020)
Several values for one entry are separate records, joined by “and”; a condition that tells them apart may be missing. Equal values may be shown once. Read-outs that look alike come from different tables or passages of the source.

How the values were obtained:
[1] = tested on: leukemia cells MV4-11; assay: Inhibitory activity on growth by MTS method; type: cell-based; details: Homo sapiens
[2] = target: human recombinant MAOB (Homo sapiens (Human), UniProt P27338); assay: MAOB in vitro activity (MAO-Glo); type: biochemical
[3] = target: Human recombinant MAOA (Homo sapiens (Human), UniProt P21397); assay: MAOA in vitro activity (MAO-Glo); type: biochemical
[4] = in vivo; details: mouse
[5] = tested on: human acute myeloid leukemia MV4-11 subcutaneous transplantation tumor; assay: Growth of subcutaneous transplantation tumor in nude mice; type: in vivo, Balb/c nude mice; details: 10 mg/kg qd p.o., 21 days
Description: Example 3 Evaluation of Chronic Efficacy at the Animal Level:
Inhibitory Effect of LSD1 Inhibitor on the Growth of Subcutaneous Transplantation Tumor in Nude Mice of Human Acute Myeloid Leukemia MV4-11 […]
Animals: Balb/c nude mice, female, weighing 17-20 g, were purchased from Beijing Weitong Lihua Experimental Animal Technology Co., Ltd., and the number of animals per group was 5.
Cell line: MV4-11 cell line was used to inoculate at the right axilla of the nude mice, and the inoculation amount was 5×10^6/animal. The experiment can start after the transplanted tumor was formed.
For female nude mice weighing 20±3 g, MV4-11 cells were inoculated into the right axilla of nude mice at a inoculation amount of 5×10^6/mouse. After tumor formation, the diameter of the transplanted tumor was measured with a vernier caliper. And after the tumor has grown into 100-300 mm^3, the animals were divided into model control group and drug-administered group according to body weight and tumor volume, with 5 mouse in each group. The model control group was given an equal amount of blank solvent. Oral gavage was used daily after grouping for 21 days.
Note: Wc: tumor weight of control group, WT: tumor weight of treatment group.
Data processing: Data were expressed as mean±standard deviation, and statistical methods were T-TEST two-tailed analysis for significant analysis.

[6] = target: Human recombinant LSD1 (Homo sapiens (Human), UniProt O60341)
Description: LSD1 In Vitro Activity Assay
Instrument: microplate reader Envision™ (PerkinElmer, USA).

[7] = tested on: CD86 expression in leukemia cell line MV4-11; assay: CD86 gene expression activation test (quantitative real-time PCR); type: cell-based, human; details: CD86 activation fold, 24 h
Experimental: CD86 Gene Expression Activation Test: Experimental Principle:
Quantitative Real-time PCR is a method for measuring the total amount of the product after each polymerase chain reaction (PCR) cycle by using fluorescent chemicals in a DNA amplification reaction. Quantitative analysis of a specific DNA sequence in a sample to be tested was conducted by internal reference method or external reference method. There is a linear relationship between the Ct value of the template and the initial copy number of the template during the exponential phase of PCR amplification, which serves as a basis for quantification.
• 1. 350 w/mL MV4-11 cells were accurately counted in a 12-well plate at 900 μL per well. • 2. […] The sample was transferred to a 1.5 mL EP tube, centrifuged at 2000 rpm for 3 min, and the supernatant was removed. […] of trizol was added for lysis and allowed to stand for 3 min. • 4. […] The supernatant was removed, and the EP tube was air-dried in a fume hood. 20-30 μL of RNase inactivated deionized water was added and mixed to measure the RNA concentration. • 8. […] 100 μL of deionized water was added to the EP tube and mixed. • 10. […]

[8] = 72 h, MV4-11, 3 days, read-out: MTS 3 D
[9] = 240 h, MV4-11, 10 days, read-out: MTS 10 D

Sequence of Human recombinant MAOA (P21397 whole entry): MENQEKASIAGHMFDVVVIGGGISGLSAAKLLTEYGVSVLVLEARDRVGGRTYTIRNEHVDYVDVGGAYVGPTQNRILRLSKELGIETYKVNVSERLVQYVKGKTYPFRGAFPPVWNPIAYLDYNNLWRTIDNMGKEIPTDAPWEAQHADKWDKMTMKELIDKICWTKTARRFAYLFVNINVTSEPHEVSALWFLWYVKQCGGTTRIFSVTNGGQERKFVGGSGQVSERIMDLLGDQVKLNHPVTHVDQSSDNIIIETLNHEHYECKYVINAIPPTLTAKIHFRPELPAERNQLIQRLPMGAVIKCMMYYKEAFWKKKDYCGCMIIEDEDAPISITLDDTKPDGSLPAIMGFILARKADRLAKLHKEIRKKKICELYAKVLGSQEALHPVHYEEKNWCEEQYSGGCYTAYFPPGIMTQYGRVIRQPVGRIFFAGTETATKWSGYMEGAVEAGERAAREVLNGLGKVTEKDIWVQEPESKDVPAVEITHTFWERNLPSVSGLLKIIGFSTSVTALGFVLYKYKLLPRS
Sequence of human recombinant MAOB (P27338 whole entry): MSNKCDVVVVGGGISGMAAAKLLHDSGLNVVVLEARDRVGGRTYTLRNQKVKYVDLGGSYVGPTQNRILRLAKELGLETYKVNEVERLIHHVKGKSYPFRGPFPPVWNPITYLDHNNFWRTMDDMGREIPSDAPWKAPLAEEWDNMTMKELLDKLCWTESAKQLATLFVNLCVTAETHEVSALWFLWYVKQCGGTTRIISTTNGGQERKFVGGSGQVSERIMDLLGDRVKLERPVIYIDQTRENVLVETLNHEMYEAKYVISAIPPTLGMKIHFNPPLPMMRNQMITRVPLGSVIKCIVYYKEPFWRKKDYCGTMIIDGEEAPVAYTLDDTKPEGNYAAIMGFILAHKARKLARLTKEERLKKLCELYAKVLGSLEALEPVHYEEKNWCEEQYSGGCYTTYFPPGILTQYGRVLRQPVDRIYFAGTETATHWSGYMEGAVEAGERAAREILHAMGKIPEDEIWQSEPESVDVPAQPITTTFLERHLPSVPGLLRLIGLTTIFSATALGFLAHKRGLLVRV

FC1(CN[C@@H]2C[C@H]2c2ccccc2)CCN(c2ccccc2)CC1 (relative stereo) [Example A20, N-((4-Fluoro-1-phenylpiperidin-4-yl)methyl)-trans-2-phenylcyclopropylamine]
IC50 [1, 8]: > 20 µM
IC50 [1, 9]: 0.52 ± 0.41 µM
IC50 [2]: 22.1 ± 2.03 µM
IC50 [3]: > 100 µM

O=C(O)c1ccc(CN2CCC(CN[C@@H]3C[C@H]3c3ccccc3)CC2)cc1 [GSK-2879552]
AUC(0-inf) ([4]; iv): 4420 ng·h/mL
AUC(0-t) ([4]; iv): 4410 ng·h/mL
Cmax ([4]; iv): 7740 ng/mL
MRT inf ([4]; iv): 0.96 h
Tmax ([4]; iv): 0.083 h
Vd ([4]; iv): 2.18 L/kg
clearance ([4]; iv): 37.7 mL/min/kg
half-life ([4]; iv): 4.36 h
AUC(0-inf) ([4]; po): 5360 ng·h/mL
AUC(0-t) ([4]; po): 5350 ng·h/mL
Cmax ([4]; po): 9180 ng/mL
MRT inf ([4]; po): 1.18 h
Tmax ([4]; po): 0.167 h
bioavailability ([4]; po): 60.7%
half-life ([4]; po): 4.24 h
Tumor inhibition rate (%) [5]: 51.96%
Tumor weight (g) mean ± SD [5]: 0.55 ± 0.55 g
Tumor weight (g), individual animals 1-5 [5]: 0.22 g and 1.19 g and 0.00 g and 1.25 g and 0.10 g
IC50 [6]: 1.22 ± 0.327 µM
Activation ratio (10 nM) ([7]; MV4-11, 10 nM): 1.79 ± 0.37
Activation ratio (100 nM) ([7]; MV4-11, 100 nM): 9.76 ± 2.23
IC50 [1, 8]: > 20 µM
IC50 [1, 9]: 1.03 ± 0.36 µM
IC50 [2]: > 100 µM
IC50 [3]: > 100 µM
